Key:
[1] = test system: cultured cardiomyocytes; assay: Spontaneous firing rate of cultured cardiomyocytes on patterned MEA (FIG. 14F); format: cell-based, human
Description: The disclosed systems are based on human cardiac myocytes. As described herein, the incorporation of a functional cardiac system based on patterned cardiac cells integrated with microelectrode assays enabled the measurement of several cardiac parameters including conduction velocity, peak amplitude and spontaneous frequency, QT interval, and relative refractory period (which is related to triangulation). […] As shown in FIGS. 14A-F, cardiac function can be mimicked or simulated using a component comprising a microcantilever detection system (14A) or a patterned MEA (microelectrode array), FIG. 14D. […] Spontaneous or electrical stimulation-evoked force generation of cardiac myocytes was measured based on optical or electrical detection of cantilever-bending. […] The sensor detected the displacement of the laser beam caused by changes in the position of the cantilever. […] Peak contraction force and force-contraction velocity relationships were calculated based on the geometry of the cantilevers and the thickness of cultured cardiac myocytes (determined from immunostaining data). Compounds (such as norepinephrine, verapamil, and sotalol) were applied using traditional methods to the medium and possible changes in force or force-velocity relationship were detected and analyzed using standard statistical methods. […]

[2] = test system: colon cancer; settings: cited from earlier work
[3] = test system: patterned neonatal cardiomyocytes; assay: Field potential recordings from patterned neonatal cardiomyocytes on microelectrode arrays; format: cell-based, rat
Description: However, commercial MEAs have electrodes spaced too close to allow effective measurement of conduction velocity, so the long linear surface chemistry patterns developed in [Natarajan 2011] allowed for measurement of conduction velocity in the spontaneously beating patterned cardiomyocytes effectively.
The μCCA in FIG. 4 required the use of liver cells and cardiac myocytes. In FIG. 4GB, pump is 43, other tissues compartment is 44, and bubble is 45. The neonatal cardiac myocyte cultures are obtained from two-day-old rat pups by previously published methods [Dhir 2009; Natajaran 2011]. Cardiac myocytes were plated at a density of […] on the patterned MEAs. Approximately 10 days were required for the cultures to establish themselves. Cardiac myocytes were stable on the patterns for at least 30 days. A silicon rubber gasket was used to isolate the tissue chambers on the μCCA prior to assembly to allow optimization of culture conditions in each chamber. After 10 days, cells were introduced to the liver compartment. […]
The cardiac myocytes were cultured on patterned metal MEAs (Planar 10 μm electrodes, 200 μm separation. Multichannel-systems). […] After a 30 minute incubation period, APs were detected and recorded using built in functions of the Multichannel System software. […] The data was further analyzed using software written using Matlab and Clampfit (Axon instruments).

[4] = in vivo; cited from earlier work

NC[C@H](O)c1ccc(O)c(O)c1 [norepinephrine]
effect on spontaneous firing rates [1]: elicits alteration of spontaneous firing rates

O=c1cc[nH]c(=O)[nH]1 [uracil]
effect on the toxicity of Tegafur [2]: enhances the toxicity of Tegafur

C[C@@H]1CN(c2c(F)c(N)c3c(=O)c(C(=O)O)cn(C4CC4)c3c2F)C[C@H](C)N1 [sparfloxacin]
responsiveness of the patterned cardiac system [3]: responsive

O=c1[nH]c(=O)n(C2CCCO2)cc1F (stereo not drawn) [Tegafur]
optimal uracil to Tegafur ratio ([2]; maximizing the concentration of 5-FU in the tumor relative to that in the blood): 4 to 1

CC1(C)C(C=C(Cl)Cl)C1C(=O)OCc1cccc(Oc2ccccc2)c1 (stereo not drawn) [cis-permethrin]
toxicity of cis isomers relative to trans isomers [4]: about ten times more toxic

CCCCCCCO [1-Heptanol]
conduction velocity (CV) after Heptanol exposure ([3]; between electrodes 84 and 52, CV before addition of the drug 0.22 m/sec): 0.011 m/sec
